Data on 22 molecules can be found in patent US7064120B2, “Tricyclic pyridyl carboxamides and derivatives thereof tocolytic oxytocin receptor antagonists” (Wyeth, priority 2001, dated 2006).

For the experiment, the target named is T1, human vasopressin V1a receptor subtype (Homo sapiens, UniProt P37288).
T1 construct: host or cells: CHO cells, stably transfected (pZeoSV vector for the Thibonnier line)
T1 sequence (P37288 whole entry): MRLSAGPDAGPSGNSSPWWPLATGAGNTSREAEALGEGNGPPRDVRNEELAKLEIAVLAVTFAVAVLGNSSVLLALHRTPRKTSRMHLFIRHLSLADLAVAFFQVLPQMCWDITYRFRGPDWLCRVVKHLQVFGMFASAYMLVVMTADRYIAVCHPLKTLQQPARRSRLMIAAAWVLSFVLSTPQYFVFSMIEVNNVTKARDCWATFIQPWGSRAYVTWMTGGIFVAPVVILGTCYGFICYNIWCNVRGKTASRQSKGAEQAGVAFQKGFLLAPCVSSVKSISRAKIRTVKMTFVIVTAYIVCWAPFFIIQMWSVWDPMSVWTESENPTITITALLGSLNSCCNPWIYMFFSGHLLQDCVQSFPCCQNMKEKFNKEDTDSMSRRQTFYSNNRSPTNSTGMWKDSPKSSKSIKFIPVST
As to the kind of experiment: Vasopressin binding in CHO cell membranes expressing human vasopressin V1a subtype receptors ([3H]Manning ligand radioligand binding). Conditions: 100 nM. A digest of the protocol: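 Membranes from CHO cells expressing human V1a, 25–50 μg protein/well, incubated 60 min at room temperature with [3H]Manning ligand (20 μL of 8 nM stock) in 50 mM Tris-HCl pH 7.4 with BSA, MgCl2 and protease inhibitors. Filtration then scintillation counting; reported as % inhibition or IC50 (nM).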
With `CN(Cc1cccnc1)C(=O)c1ccc2n1Cc1ccccc1N(C(=O)c1ccc(-c3cccc4ccccc34)cc1Cl)C2` [Example 111, 10-[2-Chloro-4-(naphthalen-1-yl)benzoyl]-N-methyl-N-(3-pyridinylmethyl)-10,11-dihydro-5H-pyrrolo[2,1-c][1,4]benzodiazepine-3-carboxamide], the inhibition at 0.1 µM came to 4%.

Regarding `COc1cc(C(=O)N2Cc3ccc(C(=O)N4CCN(c5ccncc5)CC4)n3Cc3ccccc32)ccc1-c1ccccc1C` [Example 118], the “V1a % inhibition @ 100 nM” value worked out at 62%.

For `COc1cccc(-c2cc(OC)c(C(=O)N3Cc4ccc(C(=O)NCc5cccnc5)n4Cc4ccccc43)cc2Cl)c1` [Example 43, 10-[(6-Chloro-3,3′-dimethoxy-[1,1′-biphenyl]-4-yl)carbonyl]-N-(3-pyridinylmethyl)-10,11-dihydro-5H-pyrrolo[2,1-c][1,4]benzodiazepine-3-carboxamide], the inhibition at 0.1 µM is -6%.

On to `COc1cccc(-c2ccc(C(=O)N3Cc4ccc(C(=O)N(C)Cc5cccnc5)n4Cc4ccccc43)cc2OC)c1` [Example 110], for which the “V1a % inhibition @ 100 nM” value is given as 49%.

`COc1cccc(-c2cc(OC)c(C(=O)N3Cc4ccc(C(=O)N5CCN(c6ccncc6)CC5)n4Cc4ccccc43)cc2Cl)c1` [Example 120, {10-[(6-Chloro-3,3′-dimethoxy-[1,1′-biphenyl]-4-yl)carbonyl]-10,11-dihydro-5H-pyrrolo[2,1-c][1,4]benzodiazepin-3-yl}[4-(4-pyridinyl)-1-piperazinyl]methanone]: the inhibition at 0.1 µM is 6%.

As to `COc1cccc(-c2cc(OC)c(C(=O)N3Cc4ccc(C(=O)N(C)CCc5ccncc5)n4Cc4ccccc43)cc2Cl)c1` [Example 133, 10-[(6-Chloro-3,3′-dimethoxy-[1,1′-biphenyl]-4-yl)carbonyl]-N-methyl-N-[2-(4-pyridinyl)ethyl]-10,11-dihydro-5H-pyrrolo[2,1-c][1,4]benzodiazepine-3-carboxamide], the inhibition at 0.1 µM turned out to be 19%.

Turning to `Cc1ccccc1-c1ccc(C(=O)N2Cc3ccc(C(=O)NCCc4ccccn4)n3Cc3ccccc32)cc1C` [Example 50, 10-[(2,2′-Dimethyl-[1,1′-biphenyl]-4-yl)carbonyl]-N-[2-(2-pyridinyl)ethyl]-10,11-dihydro-5H-pyrrolo[2,1-c][1,4]benzodiazepine-3-carboxamide], the inhibition at 0.1 µM came out at 26%.

Turning to `Cc1ccccc1-c1ccc(C(=O)N2Cc3ccc(C(=O)N(C)CCc4ccncc4)n3Cc3ccccc32)cc1` [Example 130, N-Methyl-10-[(2′-methyl-[1,1′-biphenyl]-4-yl)carbonyl]-N-[2-(4-pyridinyl)ethyl]-10,11-dihydro-5H-pyrrolo[2,1-c][1,4]benzodiazepine-3-carboxamide], the inhibition at 0.1 µM turned out to be 5%.

With `COc1cc(C(=O)N2Cc3ccc(C(=O)N4CCN(c5ccncc5)CC4)n3Cc3ccccc32)ccc1-c1cccc2ccccc12` [Example 121, {10-[3-Methoxy-4-(naphthalen-1-yl)benzoyl]-10,11-dihydro-5H-pyrrolo[2,1-c][1,4]benzodiazepin-3-yl}[4-(4-pyridinyl)-1-piperazinyl]methanone], the inhibition at 0.1 µM was 17%.

Consider `Cc1cc(C(=O)N2Cc3ccc(C(=O)N4CCCCC4c4cccnc4)n3Cc3ccccc32)ccc1-c1ccccc1C(F)(F)F` (stereo not shown) [Example 142, (10-{[2-Methyl-2′-trifluoromethyl-[1,1′-biphenyl]-4-yl]carbonyl}-10,11-dihydro-5H-pyrrolo[2,1-c][1,4]benzodiazepin-3-yl)[2-(3-pyridinyl)-1-piperidinyl]methanone], for which the inhibition at 0.1 µM was -5%.

`COc1ccccc1-c1ccc(C(=O)N2Cc3ccc(C(=O)N(C)CCc4ccncc4)n3Cc3ccccc32)cc1` [Example 129, 10-[(2′-Methoxy-[1,1′-biphenyl]-4-yl)carbonyl]-N-methyl-N-[2-(4-pyridinyl)ethyl]-10,11-dihydro-5H-pyrrolo[2,1-c][1,4]benzodiazepine-3-carboxamide]: the inhibition at 0.1 µM came to 54%.

In the case of `COc1ccccc1-c1ccc(C(=O)N2Cc3ccc(C(=O)N4CCCCC4c4cccnc4)n3Cc3ccccc32)cc1` (stereo not shown) [Example 139, {10-[(2′-Methoxy-[1,1′-biphenyl]-4-yl)carbonyl]-10,11-dihydro-5H-pyrrolo[2,1-c][1,4]benzodiazepin-3-yl}[2-(3-pyridinyl)-1-piperidinyl]methanone], the inhibition at 0.1 µM was 21%.

As to `Cc1ccccc1-c1ccc(C(=O)N2Cc3ccc(C(=O)N(C)CCc4ccncc4)n3Cc3ccccc32)cc1C` [Example 127, 10-[(2,2′-Dimethyl-[1,1′-biphenyl]-4-yl)carbonyl]-N-methyl-N-[2-(4-pyridinyl)ethyl]-10,11-dihydro-5H-pyrrolo[2,1-c][1,4]benzodiazepine-3-carboxamide], the inhibition at 0.1 µM came out at 66%.

Consider `COc1ccccc1-c1ccc(C(=O)N2Cc3ccc(C(=O)NCCc4ccccn4)n3Cc3ccccc32)cc1C` [Example 49, 10-[(2′-Methoxy-2-methyl-[1,1′-biphenyl]-4-yl)carbonyl]-N-[2-(2-pyridinyl)ethyl]-10,11-dihydro-5H-pyrrolo[2,1-c][1,4]benzodiazepine-3-carboxamide], for which the inhibition at 0.1 µM was determined as 1%.

In the case of `COc1ccccc1-c1ccc(C(=O)N2Cc3ccc(C(=O)NCc4cccnc4)n3Cc3ccccc32)cc1OC` [Example 45, 10-[(2,2′-Dimethoxy-[1,1′-biphenyl]-4-yl)carbonyl]-N-(3-pyridinylmethyl)-10,11-dihydro-5H-pyrrolo[2,1-c][1,4]benzodiazepine-3-carboxamide], the inhibition at 0.1 µM was 5%.

Consider `COc1cc(C(=O)N2Cc3ccc(C(=O)N(C)CCc4ccncc4)n3Cc3ccccc32)ccc1-c1cccc2ccccc12` [Example 134, 10-[3-Methoxy-4-(naphthalen-1-yl)benzoyl]-N-methyl-N-[2-(4-pyridinyl)ethyl]-10,11-dihydro-5H-pyrrolo[2,1-c][1,4]benzodiazepine-3-carboxamide], for which the inhibition at 0.1 µM amounted to 30%.

Turning to `Cc1cc(C(=O)N2Cc3ccc(C(=O)N(C)CCc4ccncc4)n3Cc3ccccc32)ccc1-c1ccccc1C(F)(F)F` [Example 137, N-Methyl-10-{[2-methyl-2′-trifluoromethyl-[1,1′-biphenyl]-4-yl]carbonyl}-N-[2-(4-pyridinyl)ethyl]-10,11-dihydro-5H-pyrrolo[2,1-c][1,4]benzodiazepine-3-carboxamide], the inhibition at 0.1 µM is -1%.

As to `COc1ccccc1-c1ccc(C(=O)N2Cc3ccc(C(=O)NCc4ccccn4)n3Cc3ccccc32)cc1C` [Example 24, 10-[(2′-Methoxy-2-methyl-[1,1′-biphenyl]-4-yl)carbonyl]-N-(2-pyridinylmethyl)-10,11-dihydro-5H-pyrrolo[2,1-c][1,4]benzodiazepine-3-carboxamide], the inhibition at 0.1 µM was determined as 7%.

For `COc1ccccc1-c1ccc(C(=O)N2Cc3ccc(C(=O)NCc4cccnc4)n3Cc3ccccc32)cc1C` [Example 36, 10-[(2′-Methoxy-2-methyl-[1,1′-biphenyl]-4-yl)carbonyl]-N-(3-pyridinylmethyl)-10,11-dihydro-5H-pyrrolo[2,1-c][1,4]benzodiazepine-3-carboxamide], the inhibition at 0.1 µM was -3%.

Turning to `O=C(NCc1cccnc1)c1ccc2n1Cc1ccccc1N(C(=O)c1ccc(-c3cccc4ccccc34)cc1Cl)C2` [Example 47, 10-[2-Chloro-4-(naphthalen-1-yl)benzoyl]-N-(3-pyridinylmethyl)-10,11-dihydro-5H-pyrrolo[2,1-c][1,4]benzodiazepine-3-carboxamide], the inhibition at 0.1 µM is -1%.

For `COc1cccc(-c2cc(OC)c(C(=O)N3Cc4ccc(C(=O)NCCc5ccccn5)n4Cc4ccccc43)cc2Cl)c1` [Example 56, 10-[(6-Chloro-3,3′-dimethoxy-[1,1′-biphenyl]-4-yl)carbonyl]-N-[2-(2-pyridinyl)ethyl]-10,11-dihydro-5H-pyrrolo[2,1-c][1,4]benzodiazepine-3-carboxamide], the inhibition at 0.1 µM is -11%.

`COc1cccc(-c2ccc(C(=O)N3Cc4ccc(C(=O)NCc5cccnc5)n4Cc4ccccc43)cc2OC)c1` [Example 46, 10-[(2,3′-Dimethoxy-[1,1′-biphenyl]-4-yl)carbonyl]-N-(3-pyridinylmethyl)-10,11-dihydro-5H-pyrrolo[2,1-c][1,4]benzodiazepine-3-carboxamide]: the inhibition at 0.1 µM was 7%.

The inhibition is the change of the read-out against control, counted positive when it falls.
